Results: paper PMC8747035, “Design, Synthesis, and Biological Evaluation of 5,6,7,8-Tetrahydrobenzo[4,5]thieno[2,3-d]pyrimidines as Microtubule Targeting Agents” (Molecules, 2022)

What was measured:
OVCAR-5 = experiment: NCI-60 growth inhibition, OVCAR-5; type: cell-based; conditions: Homo sapiens, Ovarian Cancer
From the text: (§1) Compound 4 had better potency than the lead compound 1 in 50 cancer cell lines. (better by 5 to 6-fold in leukemia, 2 to 17-fold in NSCLC, 2 to 6-fold in colon cancer, 2 to 5-fold in CNS cancer, 2 to 25-fold in melanoma, 2 to 5-fold in ovarian cancer, 2 to 9-fold in renal cancer, 2 to 5-fold in prostate cancer, and 2 to 6-fold in breast cancer compared to lead compound 1).

SK-MEL-2 = experiment: NCI-60 growth inhibition, SK-MEL-2; type: cell-based; conditions: Homo sapiens, Melanoma
From the text: as §1

A498 = experiment: NCI-60 growth inhibition, A498; type: cell-based; conditions: Homo sapiens, Renal Cancer
From the text: as §1

SK-OV-3 cells = experiment: SRB assay in SK-OV-3 cells; type: cell-based; conditions: Homo sapiens, read-out: IC50 ± SD in SK-OV-3 Cells
Experimental: Comparison of the IC50 values in the parental SK-OV-3 and genetically manipulated SK-OV-3 MDR1-M6/6 cell line allows for the calculation of a relative resistance value, designated Rr. This value is calculated by dividing the IC50 value obtained in the Pgp-expressing SK-OV-3 MDR1-M6/6 cells by the IC50 obtained in the parental SK-OV-3 cells.
The antiproliferative and cytotoxic effects of the compounds in cancer cells were evaluated using the SRB assay as previously described. MDA-MB-435 cells were obtained from the Lombardi Cancer Center of Georgetown University (Washington, DC, USA). SK-OV-3 and HeLa cells were purchased from ATCC. Details about the generation of the SK-OV-3 MDR1-M6/6 and HeLa WTβIII cells were described previously. The IC50 values represent an average of three independent experiments, each conducted using triplicate points.
HeLa, A-10, SK-OV-3, and SK-OV-3 MDR1-M6/6 cells were grown in Basal Medium Eagle (Sigma-Aldrich, St. Louis, MO, USA) supplemented with 10% FBS (Hyclone, GE Life Sciences, Logan, UT, USA) 1% GlutaMAX (Gibco, Life Technologies, Waltham, MA, USA) and 50 µg/mL gentamycin (Life Technologies, USA). HeLa WTβIII cells were grown in Dulbecco’s Modified Eagle Medium (Life Technologies) supplemented with 10% FBS and 50 µg/mL gentamycin. MDA-MB-435 cells were maintained in Improved Minimum Essential Medium (Life Technologies) supplemented with 10% FBS and 25 µg/mL gentamycin. All cells were grown at 37 °C in a humidified environment with 5% CO2.

SK-MEL-28 = experiment: NCI-60 growth inhibition, SK-MEL-28; type: cell-based; conditions: Homo sapiens, Melanoma
From the text: as §1

SK-MEL-5 = experiment: NCI-60 growth inhibition, SK-MEL-5; type: cell-based; conditions: Homo sapiens, Melanoma
From the text: as §1

NCI-H460 = experiment: NCI-60 growth inhibition, NCI-H460; type: cell-based; conditions: Homo sapiens, NSCLC
From the text: as §1

PC-3 = experiment: NCI-60 growth inhibition, PC-3; type: cell-based; conditions: Homo sapiens, Prostate Cancer
From the text: as §1

EKVX = experiment: NCI-60 growth inhibition, EKVX; type: cell-based; conditions: Homo sapiens, NSCLC
From the text: as §1

NCI-H322M = experiment: NCI-60 growth inhibition, NCI-H322M; type: cell-based; conditions: Homo sapiens, NSCLC
From the text: as §1

Bovine brain tubulin = experiment: Inhibition of purified tubulin assembly (turbidity); type: biochemical; conditions: 10 µM tubulin, 30 °C; read-out: Inhibition of Tubulin Assembly IC50 ± SD
Experimental: Bovine brain tubulin was purified as described previously. The tubulin assembly assay has been described in detail. Briefly, 1.0 mg/mL of tubulin (10 µM) was preincubated for 15 min at 30 °C in 0.8 M monosodium glutamate (pH of 2 M stock solution adjusted to 6.6 with HCl), varying compound concentrations and 4% (v/v) DMSO as compound solvent. After the preincubation, the reaction mixtures were placed on ice and 0.4 mM GTP was added. The reaction mixtures were transferred to cuvettes at 0 °C in a recording spectrophotometer equipped with an electronic temperature controller. After baselines were established, the temperature was elevated over about 30 s to 30 °C, and changes in turbidity were monitored at 350 nm for 20 min. The compound concentration that caused a 50% reduction in increase in turbidity, interpolated from the values obtained with defined compound concentrations, was defined as the IC50 value. The assay to measure inhibition of [^3H]colchicine binding was described in detail previously. Briefly, 0.1 mg/mL (1.0 µM) tubulin was incubated at 37 °C with 5.0 µM [3H]colchicine and potential inhibitors at 5.0 µM. Incubation was for 10 min, at which point the reaction had reached 40–60% of the maximum colchicine that can be bound in reaction mixtures without inhibitor. The [^3H]colchicine was a product of PerkinElmer, USA. CA-4 was a generous gift of Dr. G. R. Pettit, Arizona State University.

SF-295 = experiment: NCI-60 growth inhibition, SF-295; type: cell-based; conditions: Homo sapiens, CNS Cancer
From the text: as §1

K-562 = experiment: NCI-60 growth inhibition, K-562; type: cell-based; conditions: Homo sapiens, K562, Leukemia
From the text: as §1

SF-268 = experiment: NCI-60 growth inhibition, SF-268; type: cell-based; conditions: Homo sapiens, CNS Cancer
From the text: as §1

SW-620 = experiment: NCI-60 growth inhibition, SW-620; type: cell-based; conditions: Homo sapiens, Colon Cancer
From the text: as §1

MDA-MB-231/ATCC = experiment: NCI-60 growth inhibition, MDA-MB-231/ATCC; type: cell-based; conditions: Homo sapiens, Breast Cancer
From the text: as §1

ACHN = experiment: NCI-60 growth inhibition, ACHN; type: cell-based; conditions: Homo sapiens, Renal Cancer
From the text: as §1

IGROVI = experiment: NCI-60 growth inhibition, IGROVI; type: cell-based; conditions: Homo sapiens, Ovarian Cancer
From the text: as §1

UO-31 = experiment: NCI-60 growth inhibition, UO-31; type: cell-based; conditions: Homo sapiens, Renal Cancer
From the text: as §1

LOX IMVI = experiment: NCI-60 growth inhibition, LOX IMVI; type: cell-based; conditions: Homo sapiens, Melanoma
From the text: as §1

OVCAR-8 = experiment: NCI-60 growth inhibition, OVCAR-8; type: cell-based; conditions: Homo sapiens, Ovarian Cancer
From the text: as §1

CAKI-1 = experiment: NCI-60 growth inhibition, CAKI-1; type: cell-based; conditions: Homo sapiens, Renal Cancer
From the text: as §1

OVCAR-4 = experiment: NCI-60 growth inhibition, OVCAR-4; type: cell-based; conditions: Homo sapiens, Ovarian Cancer
From the text: as §1

UACC-62 = experiment: NCI-60 growth inhibition, UACC-62; type: cell-based; conditions: Homo sapiens, Melanoma
From the text: as §1

TK-10 = experiment: NCI-60 growth inhibition, TK-10; type: cell-based; conditions: Homo sapiens, Renal Cancer
From the text: as §1

HCT-15 = experiment: NCI-60 growth inhibition, HCT-15; type: cell-based; conditions: Homo sapiens, Colon Cancer
From the text: as §1

HL-60(TB) = experiment: NCI-60 growth inhibition, HL-60(TB); type: cell-based; conditions: Homo sapiens, Leukemia
From the text: as §1

HCC-2998 = experiment: NCI-60 growth inhibition, HCC-2998; type: cell-based; conditions: Homo sapiens, Colon Cancer
From the text: as §1

MDA-MB-468 = experiment: NCI-60 growth inhibition, MDA-MB-468; type: cell-based; conditions: Homo sapiens, Breast Cancer
From the text: as §1

Structure (SMILES): COc1ccc(N(C)c2nc(N)nc3sc4c(c23)CCCC4)cc1 [Compound 4, N4-(4-methoxyphenyl)-N4-methyl-5,6,7,8-tetrahydrobenzo[4,5]thieno[2,3-d]pyrimidine-2,4-diamine]
- GI50 (OVCAR-5): 10.8 nM
- GI50 (SK-MEL-2): 11.8 nM
- GI50 (A498): 12 nM
- IC50 (SK-OV-3 cells): 11.8 ± 1.1 nM
- GI50 (SK-MEL-28): 12.1 nM
- GI50 (SK-MEL-5): 10.8 nM
- GI50 (NCI-H460): 10.4 nM
- GI50 (PC-3): 7.67 nM
- GI50 (EKVX): 11.2 nM
- GI50 (NCI-H322M): 11.6 nM
- IC50 (Bovine brain tubulin): 820 ± 40 nM
- GI50 (SF-295): 10.2 nM
- GI50 (K-562): 2.72 nM
- GI50 (SF-268): 15.9 nM
- GI50 (SW-620): 5.63 nM
- GI50 (MDA-MB-231/ATCC): 10.9 nM
- GI50 (ACHN): 10.2 nM
- GI50 (IGROVI): 12.8 nM
- GI50 (UO-31): 11.8 nM
- GI50 (LOX IMVI): 10.1 nM
- GI50 (OVCAR-8): 18.1 nM
- GI50 (CAKI-1): 16.8 nM
- GI50 (OVCAR-4): 9.98 nM
- GI50 (UACC-62): 14.9 nM
- GI50 (TK-10): 14.2 nM
- GI50 (HCT-15): 8.85 nM
- GI50 (HL-60(TB)): 4.38 nM
- GI50 (HCC-2998): 11.8 nM
- GI50 (MDA-MB-468): 6.05 nM
